The text below walks through data of ChEMBL document CHEMBL4393699, “Ligand retargeting by binding site analogy” (Eur J Med Chem, 2019).

Structures are written as SMILES. Active and inactive are the calls of the source. The rule behind the calls is not given here.

Series [1] is filed under the species Homo sapiens. The series can be described thus: Selectivity ratio of IC50 for BACE1 (unknown origin) to IC50 for recombinant His-tagged […] (unknown origin) expressed in Escherichia coli BL21 (DE3) cells.
Series [2] has as its target T1, Beta-secretase 1 (Homo sapiens, UniProt P56817). Briefly: Inhibition of BACE1 (unknown origin) using HiLyte Fluo488/QXL-520 as substrate by FRET assay.
Series [3] concerns the target T1, Beta-secretase 1. The series can be described thus: Inhibition of BACE1 (unknown origin) at 200 uM using HiLyte Fluo488/QXL-520 as substrate by FRET assay.
In series [4] the test system is HeLa. The series can be described thus: Antiproliferative activity against human HeLa cells assessed as reduction in cell growth incubated for 72 hrs by resazurin dye based fluorescent assay. On the technique in general: Resazurin is reduced to fluorescent resorufin, in cell work by metabolically active cells.
Series [5] concerns the target Voltage-gated inwardly rectifying potassium channel KCNH2 (Homo sapiens, UniProt Q12809). The series can be described thus: Inhibition of fluorescently labeled tracer binding to human ERG at 200 uM by competitive binding assay.

T1 sequence (P56817 whole entry): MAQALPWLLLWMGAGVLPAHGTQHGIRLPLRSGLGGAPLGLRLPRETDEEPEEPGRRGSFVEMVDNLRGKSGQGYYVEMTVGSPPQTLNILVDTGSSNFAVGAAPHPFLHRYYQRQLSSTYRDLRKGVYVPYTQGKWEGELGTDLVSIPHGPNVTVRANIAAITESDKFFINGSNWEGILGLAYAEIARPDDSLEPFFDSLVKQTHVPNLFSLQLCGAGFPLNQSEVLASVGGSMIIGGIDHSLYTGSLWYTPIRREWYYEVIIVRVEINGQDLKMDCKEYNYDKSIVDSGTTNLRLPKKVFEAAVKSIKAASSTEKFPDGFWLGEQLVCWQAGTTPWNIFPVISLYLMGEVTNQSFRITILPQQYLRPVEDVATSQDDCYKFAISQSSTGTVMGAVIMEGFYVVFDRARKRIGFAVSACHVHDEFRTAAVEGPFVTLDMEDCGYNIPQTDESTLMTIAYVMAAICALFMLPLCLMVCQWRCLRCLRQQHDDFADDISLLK
Voltage-gated inwardly rectifying potassium channel KCNH2, sequence (Q12809 whole entry): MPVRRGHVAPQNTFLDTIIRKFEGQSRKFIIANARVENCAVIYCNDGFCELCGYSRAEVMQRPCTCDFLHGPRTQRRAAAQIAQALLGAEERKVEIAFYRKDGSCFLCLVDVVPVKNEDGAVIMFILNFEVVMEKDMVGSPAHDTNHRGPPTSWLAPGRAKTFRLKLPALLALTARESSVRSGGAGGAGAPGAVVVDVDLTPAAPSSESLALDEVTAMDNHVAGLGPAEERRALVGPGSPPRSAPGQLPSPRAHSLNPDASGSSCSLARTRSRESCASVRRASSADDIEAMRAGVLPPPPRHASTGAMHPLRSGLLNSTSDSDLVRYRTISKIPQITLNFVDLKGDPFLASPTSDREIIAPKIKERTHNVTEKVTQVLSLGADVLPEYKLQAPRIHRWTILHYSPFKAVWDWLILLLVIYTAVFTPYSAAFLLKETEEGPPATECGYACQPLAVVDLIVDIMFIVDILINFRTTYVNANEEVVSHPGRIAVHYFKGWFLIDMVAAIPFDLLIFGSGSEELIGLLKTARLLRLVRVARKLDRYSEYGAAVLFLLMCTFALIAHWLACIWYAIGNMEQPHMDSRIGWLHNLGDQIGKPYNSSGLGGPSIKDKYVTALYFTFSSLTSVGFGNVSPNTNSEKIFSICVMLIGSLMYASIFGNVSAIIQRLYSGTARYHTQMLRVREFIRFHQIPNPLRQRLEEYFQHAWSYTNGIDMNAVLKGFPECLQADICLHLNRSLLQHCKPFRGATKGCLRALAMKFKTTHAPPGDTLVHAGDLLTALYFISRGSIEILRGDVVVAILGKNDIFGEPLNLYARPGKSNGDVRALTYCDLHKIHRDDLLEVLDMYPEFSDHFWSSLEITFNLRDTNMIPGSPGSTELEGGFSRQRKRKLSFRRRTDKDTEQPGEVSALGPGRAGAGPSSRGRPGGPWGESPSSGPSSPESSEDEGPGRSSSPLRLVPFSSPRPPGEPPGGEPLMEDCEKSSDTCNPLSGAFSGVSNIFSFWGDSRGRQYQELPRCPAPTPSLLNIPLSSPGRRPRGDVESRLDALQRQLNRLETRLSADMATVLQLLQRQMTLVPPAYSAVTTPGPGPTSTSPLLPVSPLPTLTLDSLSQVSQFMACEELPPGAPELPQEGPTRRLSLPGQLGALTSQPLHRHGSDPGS

`NCCc1ccc(O)c(C2CCCCC2)c1`: in series [1], the Ratio IC50 turned out to be 5.

A word on the IC50: it is the midpoint of a concentration-inhibition curve. A word on the GI50: it is the concentration at which growth is held to half of that of the control. With `Nc1nc2c(-c3ccncc3F)ccnc2[nH]1`, the IC50 in series [2] is above 200 µM. For the same molecule, the inhibition result in series [3] was “inactive”. Further, the GI50 in series [4] was 30 to 90 µM. Also, in series [5], the “inhibition (INH)” value is on record as “Not Active”.

In turn, `Nc1nc2ncccc2[nH]1` gave a half-inhibitory concentration (IC50) in series [2] above 200 µM. Besides, the inhibition entry in series [3] is “inactive”.

Take `Nc1nc(NC2CC2)cc(-c2cccc(Cl)c2Cl)n1`: in series [4], the GI50 is 3.8 µM.
